Results from patent US20090053721A1, “VOLTAGE-GATED ION CHANNEL MUTANTS FOR USE IN IDENTIFYING ION CHANNEL MODULATING COMPOUNDS” (CARDIOME PHARMA CORP., priority 2007, published 2009).
pIC50: −log10 of the molar value. Structures can show the parent of a compound that is named as a salt.

Columns and labels:
Kv1.5 WT channel [1] = molecular target: T1, Kv1.5 WT channel (Homo sapiens, UniProt P22460); test: Whole-cell patch-clamp block of wild-type Kv1.5 current in HEK293 cells; format: cell-based
T1 construct: subcloned as a fragment back into full-length Kv1.5; expressed in transfected cells
T1 sequence (P22460 whole entry, the tested form may be a part): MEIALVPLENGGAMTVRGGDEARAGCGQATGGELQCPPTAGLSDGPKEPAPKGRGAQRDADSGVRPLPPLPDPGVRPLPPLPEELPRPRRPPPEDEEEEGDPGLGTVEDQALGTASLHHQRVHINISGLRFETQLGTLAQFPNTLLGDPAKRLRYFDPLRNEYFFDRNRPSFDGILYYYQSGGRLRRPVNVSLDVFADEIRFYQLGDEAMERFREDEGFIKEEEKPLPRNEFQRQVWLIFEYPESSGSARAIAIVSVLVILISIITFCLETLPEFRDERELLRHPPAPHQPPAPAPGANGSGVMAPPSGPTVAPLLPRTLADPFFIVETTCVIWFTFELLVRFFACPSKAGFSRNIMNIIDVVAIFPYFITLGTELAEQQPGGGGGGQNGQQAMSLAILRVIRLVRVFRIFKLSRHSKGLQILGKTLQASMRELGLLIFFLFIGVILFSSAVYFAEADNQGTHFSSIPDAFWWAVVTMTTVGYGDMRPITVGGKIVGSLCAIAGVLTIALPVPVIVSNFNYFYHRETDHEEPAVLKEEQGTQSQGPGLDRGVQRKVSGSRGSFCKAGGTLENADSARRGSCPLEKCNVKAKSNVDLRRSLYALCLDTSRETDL
Description: Stable lines of HEK293 cells expressing Kv1.5, or transient transfection of mutant Kv1.5 channels were used in all experiments. Primers to generate mutant channels were synthesized by Integrated DNA Technologies, Inc. (Coralville, Iowa, USA), and mutants were generated using the Stratagene Quikchange kit (Stratagene, Calif., USA). The presence of the mutation was confirmed by DNA sequencing, and because of the size of the WT Kv1.5 clone, only the sequenced region harboring the targeted nucleotides was subcloned as a fragment back into full-length Kv1.5. Transient transfections were performed with HEK 293 cells plated at 20-30% confluency on sterile coverslips in 25 mm Petri dishes one day prior to transfection. 0.1-4 μg of ion channel DNA was incubated with 1 μg of eGFP DNA (to enable detection of transfected cells) and 2 μl of lipofectamine 2000 (Invitrogen) in 100 μl of Opti-MEM. This was added to the cells for overnight incubation after washing the media with 900 μl of MEM with 10% FBS.
The cells were grown in Minimal Essential Medium (MEM) at 37° C. in an air/5% CO2 incubator. Media contained 10% bovine serum and 0.5 mg/ml geneticin for stable lines. On the day before recording, stably-expressing cells were washed with MEM, treated with trypsin/EGTA for one minute and plated on 25 mm^2 coverslips. All cell culture supplies were obtained from Invitrogen (Mississauga, ON, Canada).
Control bath solution contained (in mM): 5 KCl, 135 NaCl, 2.8 sodium acetate, 1 MgCl2, 10 HEPES and 1 CaCl2, adjusted to pH 7.4 with NaOH. Patch pipettes contained (in mM): 130 KCl, 5 EGTA, 1 MgCl2, 10 HEPES, 4 Na2ATP, and 0.1 GTP, adjusted to pH 7.2 with KOH. All chemicals used to make solutions were obtained from Sigma-Aldrich (Mississauga, ON, Canada). […] Flecamide (Sigma-Aldrich, lot number 094K4057) was prepared as a stock solution (100 mM) in 100% DMSO. DMSO concentrations for either drug never exceeded 0.1% v/v in the final experimental solutions.
Coverslips with adherent cells plated on the surface were placed in a superfusion chamber (volume 300 μl) containing the control bath solution at 22° C. Whole-cell current recording and analysis were carried out using an Axopatch 200B amplifier and pClamp10 software (Axon Instruments, CA, USA). Patch electrodes were pulled from thin-walled borosilicate glass (World Precision Instruments, FL, USA) on a horizontal micropipette puller (Sutter Instruments, CA, USA). […] Analogue capacity compensation and 80% series resistance compensation were used during whole cell measurements. […] To assess drug block, half-log escalating concentrations of drug were added to the flowing bath solution and current traces were recorded with 400 ms depolarizing pulses to +60 mV at a frequency of 0.1 Hz. […]

Kv1.5 WT channel [2] = molecular target: T1, Kv1.5 WT channel; test: Voltage-dependence of block (Woodhull fit), wild-type Kv1.5; format: cell-based; details: for blocking site, electrical distance across the membrane: Woodhull fit, +10 to +60 mV; for calculated binding site within the electric field (fractional electrical distance δ): from the inside of the pore
Experimental: Coverslips with adherent cells plated on the surface were placed in a superfusion chamber (volume 300 μl) containing the control bath solution at 22° C. Whole-cell current recording and analysis were carried out using an Axopatch 200B amplifier and pClamp10 software (Axon Instruments, CA, USA). Patch electrodes were pulled from thin-walled borosilicate glass (World Precision Instruments, FL, USA) on a horizontal micropipette puller (Sutter Instruments, CA, USA). […] Analogue capacity compensation and 80% series resistance compensation were used during whole cell measurements. Membrane potentials were not corrected for junction potentials that arise between the pipette and bath solution. For Kv1.5 current recordings, a holding potential of −80 mV was used. Data were sampled at 10-20 kHz and filtered at 5 to 10 kHz. To assess drug block, half-log escalating concentrations of drug were added to the flowing bath solution and current traces were recorded with 400 ms depolarizing pulses to +60 mV at a frequency of 0.1 Hz.
f=[D]/([D]+Kd*e^−δzFE/RT)
where F, R, z and T have their usual meanings, δ represents the fractional electrical distance, i.e., the fraction of the transmembrane electrical field sensed by a single charge at the receptor site. Kd* represents the binding affinity at the reference voltage (0 mV). The current amplitude (Idrug and Icontrol) was measured at the end of a 400 ms depolarization.
The amount of block was measured at the end of the pulse at the time indicated by the arrow on each set of data records, and, after normalization to the control, current density was plotted as a function of the depolarization potential (FIGS. 7B, 8B). Data were then fit to a standard model of drug block to obtain the electrical distance of the blocking site into the electric field from the inside of the channel (Woodhull, 1973).

| pIC50 (Kv1.5 WT channel [1]; steady-state current, +60 mV) | SMILES | Hill coefficient (Kv1.5 WT channel [1]) | reduction of outward current (Kv1.5 WT channel [1]; 10 μM vernakalant) | Fractional Block ± SEM (Kv1.5 WT channel [1]; 10 μM vernakalant, −80 to +60 mV, 400 ms, 0.1 Hz) | blocking site, electrical distance across the membrane (Kv1.5 WT channel [2]) | calculated binding site within the electric field (fractional electrical distance δ) (Kv1.5 WT channel [2]) |
| --- | --- | --- | --- | --- | --- | --- |
| – | COc1ccc(CCO[C@@H]2CCCC[C@H]2N2CC[C@@H](O)C2)cc1OC [Vernakalant, 3-Pyrrolidinol, 1-[(1R,2R)-2-[2-(3,4-dimethoxyphenyl)ethoxy]cyclohexyl]-,hydrochloride, (3R)] | 1.00 | approximately 50% | 0.45 ± 0.03 | ~17% | 0.17 |
| 4.42 | O=C(NCC1CCCCN1)c1cc(OCC(F)(F)F)ccc1OCC(F)(F)F (centres unmarked) [Flecainide] | – | – | – | ~17% | 0.17 |
